The numbers were not newly measured in patent US20100112181A1, “Recovery of Antioxidants from Decaffeination Process” (priority 2008, published 2010), which cites them from elsewhere.

For the series the following is noted: reported by K. Iwai et al., 2004.

Take dicaffeoylquinic acids [di-CQA's]: the “antioxidant activity relative to CQA's (in words)” value is “higher antioxidant activity than the CQA's”.
